Measurements published in patent US9617262B2, “Antibacterial cyclopental[C]pyrrole substituted 3,4-dihydro-1H-[1,8]naphthyridinones” (Janssen Sciences Ireland UC, priority 2011, dated 2017).

Legend:
[1] = target: S. aureus ATCC 29213 FabI (Staphylococcus aureus (strain MRSA252), UniProt Q6GI75); test: Staphylococcus aureus FabI enzyme inhibition assay; assay type: biochemical; details: pH 6.5, 30 minutes at room temperature
[2] = test system: Staphylococcus aureus ATCC 29213; test: Antibacterial susceptibility testing: IC90 determination (STA); assay type: cell-based; details: STA ATCC 29213, 90% inhibitory concentration for bacterial growth
Method: (§1) The following bacteria were used: Staphylococcus aureus ATCC 29213, methicillin-resistant Staphylococcus aureus (MRSA) ATCC 700788 and Escherichia coli ATCC 35218. The bacteria used in this study were grown overnight in flasks containing 100 ml Mueller-Hinton broth (Difco cat. nr. 0757-17) in sterile de-ionized water, with shaking, at 37° C. Stocks were store at −70° C. until use.
(§2) Bacteria were incubated on a tryptic soy agar plate containing 5% sheep blood (Becton Dickinson cat. nr. 254053) for 18-24 hours at 35° C. in aerobic conditions (first passage). For the second passage, fresh Mueller-Hinton broth is inoculated with 5-10 colonies and grown overnight at 35° C. until turbidity (reaching log-phase) in aerobic conditions is reached. The bacterial suspension is then adjusted to 0.5 McFarland density and further diluted 1:100 in Mueller Hinton broth medium. This is used as inoculum.
(§3) MIC assays were performed by the broth microdilution method in a 96-well format (flat-bottom microtitre plates) with a final volume of 0.1 ml Mueller Hinton broth containing two-fold serial dilutions of compounds and inoculated with 5×10^5 CFU/ml of bacteria (standard inoculum size according to CLSI guidelines). Inhibitors are typically varied over the range of 63 to 0.49 μM. The final DMSO concentration in the assay was 1.25% (maximum tolerable DMSO concentration=6%). In the assays where the effect of human serum on the activity of the compounds against S. aureus was tested, human serum was added at a final concentration of 10%. The plates were incubated at 35° C. for 16-20 hours. At the end of incubation the bacterial growth was quantified fluorometrically. For this, resazurin was added to all wells and the plates were re-incubated. The incubation time is dependent on the type of bacteria. A change in color from blue to pink indicated the growth of bacteria. The fluorescence was read in computer-controlled fluorometer (Fluoroskan Ascent FL, Labsystems) at an excitation wavelength 540 nm and an emission wavelength of 590 nm. The % growth inhibition achieved by the compounds was calculated according to standard methods. The IC90 (expressed in μg/ml) was defined as the 90% inhibitory concentration for bacterial growth. A panel of reference compounds were simultaneously tested for QC approval.

S. aureus = test: Antibacterial susceptibility testing: IC90 determination with 10% human serum (STA + 10% HS); assay type: cell-based, Staphylococcus aureus; details: human serum at a final concentration of 10%
Method: as §1, §2, §3
The results are depicted in the table D2 below (STA+10% HS).

Human HelaM cells = test: Cytotoxicity MTT assay (TOX HELAM); assay type: cell-based; details: 72 hours
Method: Cytotoxicity of the compounds was evaluated using the MTT assay. Human HelaM cells grown in 96-well plates were exposed to serial dilutions of the tested compounds (final volume of 0.2 ml) and incubated for 72 hours at 37° C. and 5% CO2. Inhibitors are typically varied over the range of 25 to 0.8 μM. The final DMSO concentration in the assay is 0.5%. MTT (3-(4,5-Dimethylthiazol-2-yl)-2,5-diphenyltetrazolium bromide, a tetrazole) was added and reduced to purple formazan only in living cells. Solubilization of the formazan crystals was achieved by adding 100 μl 2-propanol. Cell viability was determined by measuring the absorbance of the reduced formazan, giving a purple color, at 540 nm and 690 nm. The absorbance measured at 690 nm was automatically subtracted from the absorbance at 540 nm, to eliminate the effects of non-specific absorption. The percent cytotoxicity achieved by the compounds was calculated according to standard methods. Cytotoxicity is reported as CC50, the concentration that causes a 50% reduction in cell viability.
The results are depicted in the table D2 below (TOX HELAM).

O=C1CCc2cc(/C=C/C(=O)N3C[C@@H]4CC(c5ccccc5)=C[C@@H]4C3)cnc2N1 (single isomer, unassigned) [compound 14]
FabI IC50 [1]: 0.40 mg/L | STA (361.159) IC90 [2]: 0.19 mg/L | STA + 10% HS (361.169) IC90 (S. aureus): 0.19 mg/L | TOX HELAM (222.125) CC50 (Human HelaM cells): >9.683 mg/L
